The target of this assay is T1, HCV polymerase (Hepatitis C virus genotype 1b, UniProt P26663).
T1 construct: a region encoding NS5B (J Virol 1991 March, 65(3), 1105-13, 544 amino acids after deletion of 47 amino acids on the C-terminal); 6xHis (C); made in house; host or cells: Escherichia coli
Nature of the assay: biochemical. Set-up: species or system HCV BK strain. The gist of the method:
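Recombinant HCV BK-strain NS5B (C-terminal 47 aa deleted, His6-tagged, E. coli), 0.5 μg/ml, run with 5 μg/ml in vitro-transcribed RNA template (polyU/3′X), ATP/GTP/CTP 50 μM, UTP 2 μM plus [3H]UTP, pH 7.5, 25° C, 90 min. TCA-precipitated RNA counted by scintillation; IC50 from activity with vs without compound.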

pIC50: −log10 of the molar value. Where a name gives a salt, the structure may show the parent alone. Read-outs that look alike come from different tables or passages of the source.

The record followed here is US20070049593A1 (priority 2004, published 2007).

T1 sequence (P26663 2420-2963): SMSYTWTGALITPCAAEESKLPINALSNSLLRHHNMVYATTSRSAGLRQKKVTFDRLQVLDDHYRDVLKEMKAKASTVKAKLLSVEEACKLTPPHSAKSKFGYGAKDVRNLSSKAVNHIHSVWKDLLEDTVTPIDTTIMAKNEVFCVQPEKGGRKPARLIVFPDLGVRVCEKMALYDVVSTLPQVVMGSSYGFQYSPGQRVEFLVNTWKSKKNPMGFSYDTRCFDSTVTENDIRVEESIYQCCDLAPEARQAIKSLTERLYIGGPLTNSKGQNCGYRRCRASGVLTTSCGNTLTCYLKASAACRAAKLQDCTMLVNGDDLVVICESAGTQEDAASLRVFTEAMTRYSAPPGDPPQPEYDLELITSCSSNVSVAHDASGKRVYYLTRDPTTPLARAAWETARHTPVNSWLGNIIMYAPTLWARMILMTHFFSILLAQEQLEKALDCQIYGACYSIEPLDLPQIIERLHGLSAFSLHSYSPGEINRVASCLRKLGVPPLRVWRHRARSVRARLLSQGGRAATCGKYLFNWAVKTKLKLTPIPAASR

`COC(=O)[C@@H](Cc1ccc(O)cc1)NC(=O)c1ccc2c(C3CCCCC3)c3n(c2c1)CCOc1ccccc1-3` [Example 2-238, methyl (R)-2-[(12-cyclohexyl-6,7-dihydro-5-oxa-7a-azadibenzo[a,e]azulene-9-carbonyl)amino]-3-(4-hydroxyphenyl)propionate]: the negative-log IC50 (pIC50) (usually the negative decadic logarithm of the IC50, by convention in mol/L) is greater than 7.00. Consider `CC(C)(CN[C@H]1CC[C@H](O)CC1)NC(=O)c1ccc2c(C3CCCCC3)c3n(c2c1)CCOc1ccccc1-3` [Example 2-239, N-[2-(trans-4-hydroxycyclohexylamino)-1,1-dimethylethyl]-12-cyclohexyl-6,7-dihydro-5-oxa-7a-azadibenzo[a,e]azulene-9-carboxamide], for which the pIC50 was 6.00 to 7.00. The same measure, in the same setting: in the case of `CC(C)(NC(=O)c1ccc2c(C3CCCCC3)c3n(c2c1)CCOc1ccccc1-3)C(=O)N1CCCC(O)C1` (stereo not drawn) [Example 2-240, N-[2-(3-hydroxypiperidin-1-yl)-1,1-dimethyl-2-oxoethyl]-12-cyclohexyl-6,7-dihydro-5-oxa-7a-azadibenzo[a,e]azulene-9-carboxamide] it was greater than 7.00. Molecule `CC(C)(NC(=O)c1ccc2c(C3CCCCC3)c3n(c2c1)CCOc1ccccc1-3)c1ccc(OCC(=O)O)cc1` [Example 2-241, (4-{1-[(12-cyclohexyl-6,7-dihydro-5-oxa-7a-azadibenzo[a,e]azulene-9-carbonyl)amino]-1-methylethyl}phenoxy)acetic acid] gave a negative-log IC50 (pIC50) greater than 7.00. Still for that read-out and setting: in the case of `CC(C)(NC(=O)c1ccc2c(C3CCCCC3)c3n(c2c1)CCOc1ccccc1-3)C(=O)N1CCC(CO)CC1` [Example 2-242, N-[2-(4-hydroxymethylpiperidin-1-yl)-1,1-dimethyl-2-oxoethyl]-12-cyclohexyl-6,7-dihydro-5-oxa-7a-azadibenzo[a,e]azulene-9-carboxamide] it was greater than 7.00; in that of `CCN1CCC(CCN(CC)c2cccc3c2OCCn2c-3c(C3CCCCC3)c3ccc(C(=O)O)cc32)CC1` [Example 2-243, 12-cyclohexyl-4-{N-ethyl-N-[2-(1-ethylpiperidin-4-yl)ethyl]amino}-6,7-dihydro-5-oxa-7a-azadibenzo[a,e]azulene-9-carboxylic acid dihydrochloride], greater than 7.00.

For `CC(C)(CN1CCN(CCO)CC1)NC(=O)c1ccc2c(C3CCCCC3)c3n(c2c1)CCOc1ccccc1-3` [Example 2-244, N-{2-[4-(2-hydroxyethyl)piperazin-1-yl]-1,1-dimethylethyl}-12-cyclohexyl-6,7-dihydro-5-oxa-7a-azadibenzo[a,e]azulene-9-carboxamide], the pIC50 was 6.00 to 7.00. `CNC(=O)[C@H](Cc1ccc(O)cc1)NC(=O)c1ccc2c(C3CCCCC3)c3n(c2c1)CCOc1ccccc1-3` [Example 2-245, [(S)-2-(4-hydroxyphenyl)-1-(methylcarbamoyl)ethyl]-12-cyclohexyl-6,7-dihydro-5-oxa-7a-azadibenzo[a,e]azulene-9-carboxamide]: the pIC50 (25° C., 90 min, [5,6-3H]UTP incorporation into RNA, read-out: HCV polymerase inhibitory activity IC50) is greater than 7.00. `O=C(N[C@H](Cc1ccc(O)cc1)C(=O)O)c1ccc2c(C3CCCCC3)c3n(c2c1)CCOc1ccccc1-3` [Example 2-246, (R)-2-[(12-cyclohexyl-6,7-dihydro-5-oxa-7a-azadibenzo[a,e]azulene-9-carbonyl)amino]-3-(4-hydroxyphenyl)propionic acid] had a negative-log IC50 (pIC50) greater than 7.00.

As for `O=C(O)CN1CCC(NC(=O)c2ccc3c(C4CCCCC4)c4n(c3c2)CCOc2ccccc2-4)(c2nc3ccccc3[nH]2)CC1` [Example 2-247, {4-(1H-benzimidazol-2-yl)-4-[(12-cyclohexyl-6,7-dihydro-5-oxa-7a-azadibenzo[a,e]azulene-9-carbonyl)amino]piperidin-1-yl}acetic acid], the pIC50 was greater than 7.00. `COC(=O)CN1CCC(NC(=O)c2ccc3c(C4CCCCC4)c4n(c3c2)CCOc2ccccc2-4)(c2nc3ccccc3[nH]2)CC1` [Example 2-248, methyl (4-(1H-benzimidazol-2-yl)-4-[(12-cyclohexyl-6,7-dihydro-5-oxa-7a-azadibenzo[a,e]azulene-9-carbonyl)amino]piperidin-1-yl]acetate monohydrochloride]: the pIC50 is greater than 7.00. Molecule `Cn1c(CNC(=O)c2ccc3c(C4CCCCC4)c4n(c3c2)CCOc2ccccc2-4)nc2ccccc21` [Example 2-249, N-(1-methyl-1H-benzimidazol-2-ylmethyl)-12-cyclohexyl-6,7-dihydro-5-oxa-7a-azadibenzo[a,e]azulene-9-carboxamide] showed a pIC50 greater than 7.00. The same measure, in the same setting: in the case of `O=C(O)Cn1c(CNC(=O)c2ccc3c(C4CCCCC4)c4n(c3c2)CCOc2ccccc2-4)nc2ccccc21` [Example 2-250, (2-{[(12-cyclohexyl-6,7-dihydro-5-oxa-7a-azadibenzo[a,e]azulene-9-carbonyl)amino]methyl}benzimidazol-1-yl)acetic acid] it was greater than 7.00.

Molecule `COC(=O)Cn1c(CNC(=O)c2ccc3c(C4CCCCC4)c4n(c3c2)CCOc2ccccc2-4)nc2ccccc21` [Example 2-251, methyl (2-{[(12-cyclohexyl-6,7-dihydro-5-oxa-7a-azadibenzo[a,e]azulene-9-carbonyl)amino]methyl}benzimidazol-1-yl)acetate] showed a pIC50 greater than 7.00.

In turn, `O=C(NCc1nc2ccccc2[nH]1)c1ccc2c(C3CCCCC3)c3n(c2c1)CCOc1ccccc1-3` [Example 2-252, N-(1H-benzimidazol-2-ylmethyl)-12-cyclohexyl-6,7-dihydro-5-oxa-7a-azadibenzo[a,e]azulene-9-carboxamide] had a negative-log IC50 (pIC50) greater than 7.00. For `O=C(NC(Cc1c[nH]c2ccc(O)cc12)C(=O)O)c1ccc2c(C3CCCCC3)c3n(c2c1)CCOc1ccccc1-3` (stereo not drawn) [Example 2-253], the pIC50 (read-out: HCV polymerase inhibitory activity IC50, 25° C., 90 min, [5,6-3H]UTP incorporation into RNA) was greater than 7.00. Take `CC(C)(CN/C=C/C(=O)O)NC(=O)c1ccc2c(C3CCCCC3)c3n(c2c1)CCOc1ccccc1-3` [Example 2-254, (E)-3-{2-[(12-cyclohexyl-6,7-dihydro-5-oxa-7a-azadibenzo[a,e]azulene-9-carbonyl)amino]-2-methylpropylamino}acrylic acid]: the pIC50 is 6.00 to 7.00. In turn, `CC(C)(CNc1ccc(C(=O)O)cn1)NC(=O)c1ccc2c(C3CCCCC3)c3n(c2c1)CCOc1ccccc1-3` [Example 2-255, 6-{2-[(12-cyclohexyl-6,7-dihydro-5-oxa-7a-azadibenzo[a,e]azulene-9-carbonyl)amino]-2-methylpropylamino}nicotinic acid] had a pIC50 greater than 7.00. For `O=C(O)c1ccc2c(C3CCCCC3)c3n(c2c1)CCOc1c-3cccc1N(CCOCc1ccccc1)CCN1CCCCC1` [Example 2-256, 4-{N-(2-benzyloxyethyl)-N-[2-(piperidin-1-yl)ethyl]amino}-12-cyclohexyl-6,7-dihydro-5-oxa-7a-azadibenzo[a,e]azulene-9-carboxylic acid dihydrochloride], the pIC50 is greater than 7.00. Molecule `CC(C)OCCN(CCN1CCCCC1)c1cccc2c1OCCn1c-2c(C2CCCCC2)c2ccc(C(=O)O)cc21` [Example 2-257, 12-cyclohexyl-4-(N-(2-isopropoxyethyl)-N-[2-(piperidin-1-yl)ethyl]amino}-6,7-dihydro-5-oxa-7a-azadibenzo[a,e]azulene-9-carboxylic acid dihydrochloride] showed a pIC50 greater than 7.00.

As for `Cc1nc(C(C)(C)NC(=O)c2ccc3c(C4CCCCC4)c4n(c3c2)CCOc2ccccc2-4)[nH]c1C` [Example 2-258, N-[1-(4,5-dimethyl-1H-imidazol-2-yl)-1-methylethyl]-12-cyclohexyl-6,7-dihydro-5-oxa-7a-azadibenzo[a,e]azulene-9-carboxamide], the negative logarithm of the IC50 (pIC50) was greater than 7.00. In turn, `Cc1nc(C(C)(C)NC(=O)c2ccc3c(C4CCCCC4)c4n(c3c2)CCOc2ccccc2-4)n(C)c1C` [Example 2-259, N-[1-methyl-1-(1,4,5-trimethyl-1H-imidazol-2-yl)ethyl]-12-cyclohexyl-6,7-dihydro-5-oxa-7a-azadibenzo[a,e]azulene-9-carboxamide] showed a pIC50 greater than 7.00. The same measure, in the same setting: under `CC(C)(NC(=O)c1ccc2c(C3CCCCC3)c3n(c2c1)CCOc1ccccc1-3)C(=O)Nc1cccc(O)c1` [Example 2-260, N-[1-(3-hydroxyphenylcarbamoyl)-1-methylethyl]-12-cyclohexyl-6,7-dihydro-5-oxa-7a-azadibenzo[a,e]azulene-9-carboxamide] stands greater than 7.00; under `O=C(O)c1ccc2c(C3CCCCC3)c3n(c2c1)CCOc1c-3cccc1N(CCO)CCN1CCCCC1` [Example 2-261, 12-cyclohexyl-4-{N-(2-hydroxyethyl)-N-[2-(piperidin-1-yl)ethyl]amino}-6,7-dihydro-5-oxa-7a-azadibenzo[a,e]azulene-9-carboxylic acid dihydrochloride], greater than 7.00; under `COc1ccc2c(c1)OCCn1c-2c(C2CCCCC2)c2ccc(C(=O)N[C@@H](Cc3ccc(O)cc3)C(=O)N(C)C)cc21` [Example 2-262, N—[(S)-1-dimethylcarbamoyl-2-(4-hydroxyphenyl)ethyl]-12-cyclohexyl-3-methoxy-6,7-dihydro-5-oxa-7a-azadibenzo[a,e]azulene-9-carboxamide], greater than 7.00. In turn, `CNC(=O)[C@H](Cc1ccc(O)cc1)NC(=O)c1ccc2c(C3CCCCC3)c3n(c2c1)CCOc1cc(OC)ccc1-3` [Example 2-263, N—[(S)-2-(4-hydroxyphenyl)-1-(methylcarbamoyl)ethyl]-12-cyclohexyl-3-methoxy-6,7-dihydro-5-oxa-7a-azadibenzo[a,e]azulene-9-carboxamide] gave a pIC50 greater than 7.00. In the case of `COC(=O)Cn1c(C(C)(C)NC(=O)c2ccc3c(C4CCCCC4)c4n(c3c2)CCOc2ccccc2-4)nc(C)c1C` [Example 2-264, methyl (2-{1-[(12-cyclohexyl-6,7-dihydro-5-oxa-7a-azadibenzo[a,e]azulene-9-carbonyl)amino]-1-methylethyl}-4,5-dimethylimidazol-1-yl)acetate], the negative-log IC50 (pIC50) is greater than 7.00.
